The text below walks through data of PubChem BioAssay (NCI).

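Where inhibition never reached the appropriate level, the endpoint shown equals the highest concentration tested. Otherwise, values were interpolated linearly from a five-concentration, 48-hour dose response in 96-well plates. TGI marks complete inhibition of growth.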 A value given as a limit tells only on which side of the number the result lay.

Assay in all cases: growth of human tumour cells (NCI), 48 h
The test system of test [1] is CCRF-CEM leukemia.
Test [2] concerns DMS 114 small cell lung.
For test [3], the system named is KM20L2 colon.
Test [4] concerns OVCAR-5 ovarian.
In test [5] the test system is HOP-18 NSCLC.
Test [6] relates to MALME-3M melanoma.
Test [7] relates to DMS 273 small cell lung.
Test [8] has as its system M14 melanoma.
The test system of test [9] is NCI-H226 lung.
The test system of test [10] is 786-0 renal.
In test [11] the test system is SNB-75 CNS.
Test [12] concerns T-47D breast.
Test [13] concerns MDA-N.

With `OC1CCSc2ccccc21` (stereo unspecified), the TGI in test [1], in test [2], in test [3], in [4], in test [5] and in [6] was over 100 µM in each case. Also, the TGI in test [7], in test [8] and in [9] was over 100 µM in each case.
As to `O=C(NN1CCCCC1)c1cc2cc(CCl)ccc2oc1=O`, the TGI in test [10] is 32 µM; in test [11] it was 34.9 µM; in test [1], 67.5 µM; in [12], 48.7 µM; in test [4] it was 31.8 µM; in test [13] it was 33.4 µM. The TGI in [6] stood at 24.8 µM; in test [8], 49.4 µM; in test [9] it was 45.3 µM.
On to `CC(C)(C)COS(=O)OCC(C)(C)C`, for which the TGI in test [10], in test [11], in test [1], in [12], in test [4] and in [13] was over 100 µM in each case. In addition, the TGI in test [6], in [8] and in test [9] was over 100 µM in each case.
For the molecule `Cc1ccc(S(=O)(=O)Nc2cc(=O)[nH]c3c2CCC3)cc1`, the TGI in [10], in [11], in test [1], in [12], in [4] and in test [13] was over 100 µM throughout. The TGI in test [6], in test [8] and in test [9] was over 100 µM throughout.
Consider `COc1cc(/C=C2\CC3C4CC[C@H]5C[C@@H](O)CC[C@]5(C)C4CC[C@]3(C)\C2=N\O)cc(OC)c1OC` (stereo partly specified), for which the TGI in test [10] was 34.8 µM; in test [11], over 100 µM; in test [1], over 100 µM; in [12], 36.9 µM; in test [4], over 100 µM; in test [13], 41.9 µM. The TGI worked out at 42.8 µM in [6], 37.3 µM in test [8] and 45.1 µM in test [9].
Consider `C=C(CN(C)C)C(=O)c1ccccc1Cl`, for which the TGI was 34.3 µM in test [10]; over 80.7 µM in [11]; 44.3 µM in [1]; 29.4 µM in test [2]; over 60.4 µM in test [3]; over 60.4 µM in test [4]. Further, the TGI was 33.7 µM in test [5]; 31.7 µM in [6]; 36.8 µM in test [7]; 33.3 µM in test [8]; over 100 µM in test [9].
`CN(CCCN1CCCC1)CCCN(C)C(=O)Cc1ccc(Cl)c(Cl)c1`: the TGI in test [10] amounted to 29.2 µM; in test [11], 42.6 µM; in test [1] it was 23.8 µM; in test [12], 45.9 µM; in [4], 78.1 µM; in test [13], 16 µM. For the same molecule, the TGI in [6] is 34.6 µM; in test [8], 13.9 µM; in [9], 48 µM.
For the molecule `CC(NC(=O)c1ccc(OP(=O)(OCc2ccc([N+](=O)[O-])o2)N(C)CCCCCl)cc1)c1ccc(OCC2CCCCC2)c(C(N)=O)c1` (stereo unspecified), the TGI in test [10] is over 37.2 µM; in test [11], 25.3 µM; in test [1], 0.842 µM; in test [12], over 20.1 µM; in [4] it was over 47.6 µM; in test [13], 24 µM. Further, the values for the TGI in [6], in test [8] and in test [9] were 10.7 µM, 22.7 µM and 26.2 µM, respectively.
As for `Cc1ccc([N+](=O)[O-])cc1S(=O)(=O)Nc1ccc(C2=NN(C(=O)c3ccccc3)C(c3ccccc3O)C2)cc1` (stereo unspecified), the TGI in test [10] was 27.9 µM; in test [11], 41.4 µM; in test [1] it was over 100 µM; in test [12], 30.1 µM; in [4], 60.6 µM; in [13], 88.1 µM. Also, the TGI came out at 31.5 µM in test [6], 48.6 µM in [8] and 58.6 µM in test [9].
Consider `Nc1ccc(Cc2ccc(N)c(C(=O)O)c2)cc1C(=O)O`, for which the TGI in test [10], in test [11], in test [1], in [12], in [4] and in [13] was over 100 µM throughout. In addition, the TGI in test [6], in test [8] and in [9] was over 100 µM each time.
On to `CC(C)C(=O)CC(c1ccc(Br)cc1)N1N=C(C(C)C)CC1c1ccc(Br)cc1` (stereo unspecified), for which the TGI in [1], in test [2], in test [3], in [4], in test [5] and in test [6] was over 100 µM in each case. Besides, the TGI in test [7], in test [8] and in test [9] was over 100 µM in each case.
